# Laboratory results as given in ChEMBL document CHEMBL5046315, “CRCM5484: A BET-BDII Selective Compound with Differential Anti-leukemic Drug Modulation” (J Med Chem, 2022).
# Active and inactive are the calls of the source. The rule behind the calls is not given here.
# Assays:
# [1] = tested on: U-937; test: Potentiation of AC-4-130-induced antileukemic activity against human U-937 cells at 4.3 uM in presence of bone-marrow derived stromal cell-conditioned medium; format: functional, cell-based
# [2] = tested on: U-937; test: Potentiation of luminespid-induced antileukemic activity against human U-937 cells at 4.3 uM in presence of bone-marrow derived stromal cell-conditioned medium; format: functional, cell-based
# [3] = tested on: MOLM-14; test: Potentiation of SGI-1027-induced antileukemic activity against human MOLM-14 cells at 4.3 uM in presence of bone-marrow derived stromal cell-conditioned medium; format: functional, cell-based
# [4] = tested on: MOLM-14; test: Potentiation of azacitidine-induced antileukemic activity against human MOLM-14 cells at 4.3 uM in presence of bone-marrow derived stromal cell-conditioned medium; format: functional, cell-based
# [5] = tested on: MOLM-14; test: Potentiation of SGI-110-induced antileukemic activity against human MOLM-14 cells at 4.3 uM in presence of bone-marrow derived stromal cell-conditioned medium; format: functional, cell-based
# [6] = tested on: U-937; test: Potentiation of entinostat-induced antileukemic activity against human U-937 cells at 4.3 uM in presence of bone-marrow derived stromal cell-conditioned medium; format: functional, cell-based
# [7] = tested on: U-937; test: Potentiation of bleomycine-induced antileukemic activity against human U-937 cells at 4.3 uM in presence of bone-marrow derived stromal cell-conditioned medium; format: functional, cell-based
# [8] = tested on: U-937; test: Potentiation of docetaxel-induced antileukemic activity against human U-937 cells at 4.3 uM in presence of bone-marrow derived stromal cell-conditioned medium; format: functional, cell-based
# [9] = tested on: MOLM-14; test: cells; details: Homo sapiens, MOLM-14, 72 h
# Description: Cytotoxicity against human MOLM-14 cells assessed as reduction in cell viability incubated for 72 hrs
# [10] = tested on: MOLM-14; test: Potentiation of venetoclax-induced antileukemic activity against human MOLM-14 cells at 4.3 uM in presence of bone-marrow derived stromal cell-conditioned medium; format: functional, cell-based
# [11] = tested on: U-937; test: Potentiation of volasertib-induced antileukemic activity against human U-937 cells at 4.3 uM in presence of bone-marrow derived stromal cell-conditioned medium; format: functional, cell-based
# [12] = tested on: CCRF-CEM; test: Potentiation of everolimus-induced antileukemic activity against human CCRF-CEM cells at 4.3 uM in presence of bone-marrow derived stromal cell-conditioned medium; format: functional, cell-based
# [13] = tested on: MOLM-14; test: Potentiation of asparaginase-induced antileukemic activity against human MOLM-14 cells at 4.3 uM in presence of bone-marrow derived stromal cell-conditioned medium; format: functional, cell-based
# [14] = tested on: CCRF-CEM; test: Potentiation of ruxolitinib-induced antileukemic activity against human CCRF-CEM cells at 4.3 uM in presence of bone-marrow derived stromal cell-conditioned medium; format: functional, cell-based
# [15] = tested on: CCRF-CEM; test: Potentiation of selinexor-induced antileukemic activity against human CCRF-CEM cells at 4.3 uM in presence of bone-marrow derived stromal cell-conditioned medium; format: functional, cell-based
# [16] = tested on: CCRF-CEM; test: Potentiation of niotinib-induced antileukemic activity against human CCRF-CEM cells at 4.3 uM in presence of bone-marrow derived stromal cell-conditioned medium; format: functional, cell-based
# [17] = tested on: CCRF-CEM; test: Potentiation of arsenic-induced antileukemic activity against human CCRF-CEM cells at 4.3 uM in presence of bone-marrow derived stromal cell-conditioned medium; format: functional, cell-based
# [18] = tested on: CCRF-CEM; test: Potentiation of sorafenib-induced antileukemic activity against human CCRF-CEM cells at 4.3 uM in presence of bone-marrow derived stromal cell-conditioned medium; format: functional, cell-based
# [19] = tested on: U-937; test: Potentiation of GSK2879552-induced antileukemic activity against human U-937 cells at 4.3 uM in presence of bone-marrow derived stromal cell-conditioned medium; format: functional, cell-based
# [20] = tested on: MOLM-14; test: Potentiation of nelarabine-induced antileukemic activity against human MOLM-14 cells at 4.3 uM in presence of bone-marrow derived stromal cell-conditioned medium; format: functional, cell-based
# [21] = tested on: MOLM-14; test: Potentiation of gileritinib-induced antileukemic activity against human MOLM-14 cells at 4.3 uM in presence of bone-marrow derived stromal cell-conditioned medium; format: functional, cell-based
# [22] = tested on: U-937; test: Potentiation of bosutinib-induced antileukemic activity against human U-937 cells at 4.3 uM in presence of bone-marrow derived stromal cell-conditioned medium; format: functional, cell-based
# [23] = tested on: CCRF-CEM; test: Potentiation of sunitinib-induced antileukemic activity against human CCRF-CEM cells at 4.3 uM in presence of bone-marrow derived stromal cell-conditioned medium; format: functional, cell-based
# [24] = tested on: CCRF-CEM; test: Potentiation of lapatinib-induced antileukemic activity against human CCRF-CEM cells at 4.3 uM in presence of bone-marrow derived stromal cell-conditioned medium; format: functional, cell-based
# [25] = tested on: U-937; test: Potentiation of SGI-110-induced antileukemic activity against human U-937 cells at 4.3 uM in presence of bone-marrow derived stromal cell-conditioned medium; format: functional, cell-based
# [26] = tested on: MOLM-14; test: Potentiation of tretinoin-induced antileukemic activity against human MOLM-14 cells at 4.3 uM in presence of bone-marrow derived stromal cell-conditioned medium; format: functional, cell-based
# [27] = tested on: CCRF-CEM; test: Potentiation of trametinib-induced antileukemic activity against human CCRF-CEM cells at 4.3 uM in presence of bone-marrow derived stromal cell-conditioned medium; format: functional, cell-based
# [28] = tested on: MOLM-14; test: Potentiation of -nutlin 3-induced antileukemic activity against human MOLM-14 cells at 4.3 uM in presence of bone-marrow derived stromal cell-conditioned medium; format: functional, cell-based
# [29] = tested on: U-937; test: Potentiation of ponatinib-induced antileukemic activity against human U-937 cells at 4.3 uM in presence of bone-marrow derived stromal cell-conditioned medium; format: functional, cell-based
# [30] = tested on: CCRF-CEM; test: Potentiation of afatinib-induced antileukemic activity against human CCRF-CEM cells at 4.3 uM in presence of bone-marrow derived stromal cell-conditioned medium; format: functional, cell-based
# [31] = tested on: U-937; test: Potentiation of midostaurin-induced antileukemic activity against human U-937 cells at 4.3 uM in presence of bone-marrow derived stromal cell-conditioned medium; format: functional, cell-based
# [32] = tested on: MOLM-14; test: Potentiation of bortezomib-induced antileukemic activity against human MOLM-14 cells at 4.3 uM in presence of bone-marrow derived stromal cell-conditioned medium; format: functional, cell-based
# [33] = molecular target: Bromodomain-containing protein 4 (Homo sapiens, UniProt O60885); test: Inhibition of BRD4-BD2 (unknown origin) incubated for 6 hrs by HTRF method
# [34] = tested on: MOLM-14; test: Potentiation of olaparid-induced antileukemic activity against human MOLM-14 cells at 4.3 uM in presence of bone-marrow derived stromal cell-conditioned medium; format: functional, cell-based
# [35] = tested on: CCRF-CEM; test: Potentiation of BKM120-induced antileukemic activity against human CCRF-CEM cells at 4.3 uM in presence of bone-marrow derived stromal cell-conditioned medium; format: functional, cell-based
# [36] = tested on: CCRF-CEM; test: Potentiation of 17AAG-induced antileukemic activity against human CCRF-CEM cells at 4.3 uM in presence of bone-marrow derived stromal cell-conditioned medium; format: functional, cell-based
# [37] = tested on: U-937; test: Potentiation of idarubicin-induced antileukemic activity against human U-937 cells at 4.3 uM in presence of bone-marrow derived stromal cell-conditioned medium; format: functional, cell-based
# [38] = tested on: MOLM-14; test: Potentiation of temsirolimus-induced antileukemic activity against human MOLM-14 cells at 4.3 uM in presence of bone-marrow derived stromal cell-conditioned medium; format: functional, cell-based
structure (smiles),measurement,setting,value
CC(=O)N1CCc2c(sc3nc(SCC(=O)Nc4cccnc4C)n(Cc4ccco4)c(=O)c23)C1,Activity,[1],inactive
same,Activity,[2],inactive
same,Activity,[3],inactive
same,Activity,[4],inactive
same,Activity,[5],inactive
same,Activity,[6],inactive
same,Activity,[7],inactive
same,Activity,[8],inactive
same,EC50,[9],8.5 µM
same,Activity,[10],inactive
same,Activity,[11],inactive
same,Activity,[12],inactive
same,Activity,[13],inactive
same,Activity,[14],inactive
same,Activity,[15],inactive
same,Activity,[16],inactive
same,Activity,[17],inactive
same,Activity,[18],inactive
same,Activity,[19],inactive
same,Activity,[20],inactive
same,Activity,[21],inactive
same,Activity,[22],inactive
same,Activity,[23],inactive
same,Activity,[24],inactive
same,Activity,[25],inactive
same,Activity,[26],inactive
same,Activity,[27],inactive
same,Activity,[28],inactive
same,Activity,[29],inactive
same,Activity,[30],inactive
same,Activity,[31],inactive
same,Activity,[32],inactive
same,IC50,[33],0.13 µM
same,Activity,[34],inactive
same,Activity,[35],inactive
same,Activity,[36],inactive
same,Activity,[37],inactive
same,Activity,[38],inactive
